Source: patent US5726195A, “Aminoacyl adenylate mimics as novel antimicrobial and antiparasitic agents” (Cubist Pharmaceuticals, Inc., priority 1996, dated 1998)
≈ marks a conversion by molar mass, not a printed value.

Key:
[1] = target: E. Coli. IleRS (isoleucyl-tRNA synthetase) (Escherichia coli, UniProt P00956); test: Inhibition of isoleucyl-tRNA synthetase (aminoacylation of tRNA with [3H]isoleucine); type: biochemical; settings: E. coli enzyme; irreversible inhibitors: values are 50% of the active enzyme concentration; read-out: IC50 E.Coli. IleRS
Sequence of E. Coli. IleRS (isoleucyl-tRNA synthetase) (P00956 whole entry): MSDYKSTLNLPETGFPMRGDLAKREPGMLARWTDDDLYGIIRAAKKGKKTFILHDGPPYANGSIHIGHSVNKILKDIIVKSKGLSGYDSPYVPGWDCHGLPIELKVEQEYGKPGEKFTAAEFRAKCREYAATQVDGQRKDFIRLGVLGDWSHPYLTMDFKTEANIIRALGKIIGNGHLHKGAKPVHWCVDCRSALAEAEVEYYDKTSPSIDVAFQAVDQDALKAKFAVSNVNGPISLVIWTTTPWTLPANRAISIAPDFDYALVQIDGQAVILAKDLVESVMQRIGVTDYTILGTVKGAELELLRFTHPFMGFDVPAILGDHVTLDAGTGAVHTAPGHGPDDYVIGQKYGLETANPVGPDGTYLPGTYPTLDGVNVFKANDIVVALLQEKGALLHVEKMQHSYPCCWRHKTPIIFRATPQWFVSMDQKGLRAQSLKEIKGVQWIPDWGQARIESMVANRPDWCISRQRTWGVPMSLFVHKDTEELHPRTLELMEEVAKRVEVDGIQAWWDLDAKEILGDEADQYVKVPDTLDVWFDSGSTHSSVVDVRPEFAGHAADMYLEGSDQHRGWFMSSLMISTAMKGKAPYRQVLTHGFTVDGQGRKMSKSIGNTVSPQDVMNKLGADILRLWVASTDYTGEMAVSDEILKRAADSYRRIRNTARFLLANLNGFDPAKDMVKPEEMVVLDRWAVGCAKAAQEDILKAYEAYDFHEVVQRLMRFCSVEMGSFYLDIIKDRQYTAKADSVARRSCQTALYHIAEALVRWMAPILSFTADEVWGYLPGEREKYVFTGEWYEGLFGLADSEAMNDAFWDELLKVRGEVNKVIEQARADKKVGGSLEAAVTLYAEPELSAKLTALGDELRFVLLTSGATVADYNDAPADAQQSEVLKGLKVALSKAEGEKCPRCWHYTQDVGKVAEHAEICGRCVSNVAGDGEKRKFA
Method: The extent of aminoacylation of tRNA with isoleucine catalyzed by isoleucyl-tRNA synthetase enzyme was measured by monitoring the incorporation of [3H] isoleucine into trichloroacetic acid-precipitable tRNA in the presence of a compound of Formula I, as compared with activity in the absence of inhibitor. The isoleucyl-tRNA synthetase enzymes are well known in the prior art and can be obtained and purified by known methods (for example see: D. Kern et at., Biochimie, 61, 1257-1272 (1979) and J. Gilbart et al., Antimicrobial Agents and Chemotherapy, 37 (1), 32-38 (1993)).
Isoleucyl-tRNA synthetase enzyme (0.08-2.0 nM, preferably, 0.4 nM) was first pre-incubated at 25° C. with 0.05 mg/ml bovine serum albumin, 10 mM DTT, 2.5% dimethyl sulfoxide, with or without a compound of Formula I, for 20 minutes. At this point a substrate solution (a solution containing the following: ATP, [^3 H]isoleucine, tRNA, HEPES, magnesium chloride, and potassium chloride) was added to give a final concentration of 0.0286 mg/ml bovine serum albumin, 5.7 mM DTT, 4 mM ATP, 5-20 μM [^3 H] isoleucine (1-15 Ci/mmol), 90 μM crude tRNA or 2 μM isoleucine specific tRNA, 1.4% dimethyl sulfoxide, 30 mM HEPES (pH 7.5), 10 mM magnesium chloride, and 50 mM potassium chloride and incubated at 25° C. Aliquots were removed at selected times (e.g. 5, 10, 20 minutes) and applied to 3MM filter paper discs (Whatman) and then dropped into 5% (wt/vol) trichloroacetic acid for >5 minutes. Filters were washed for three 10-minute periods in 5% trichloroacetic acid, rinsed in 95% ethanol and diethyl ether, and radioactivity was measured with Betafluor™ (National Diagnostics) by liquid scintillation counting.
Inhibitor activity is reported in Table II as an IC50 value (inhibitor concentration causing 50% inhibition of enzyme activity) per a known amount of active enzyme. In the case of irreversible inhibitors (1:1 stoichiometry) these values are 50% of the active enzyme concentration. The IC50 (in nM, E. coli) values of representative compounds of the present invention are listed in the second column of Table II.

[2] = test system: C. albicans ATCC 10231; test: Whole cell antimicrobial screen, MIC; type: cell-based; settings: Candida albicans, ATCC10231
Method: (§1) Compounds were tested for antimicrobial activity against a panel of organisms according to standard procedures described by the National Committee for Clinical Laboratory Standards (NCCLS document M7-A3, Vol. 13, No. 25, 1993/NCCLS document M27-P, Vol. 12, No. 25, 1992). Compounds were dissolved in 100% dimethyl sulfoxide and were diluted to the final reaction concentration (0.1 μg/mL-500 μg/mL) in microbial growth media. In al cases the final concentration of dimethyl sulfoxide incubated with cells is less than or equal to 1%. For minimum inhibitory concentration (MIC) calculations, 2-fold dilutions of compounds were added to wells of a microtiter plate containing 5×10^4 bacteria or fungal cells in a final volume of 100 lambda of an appropriate media (Mueller-Hinton Broth; Haemophilus Test Media; Mueller-Hinton Broth+5% Sheep Blood; or […]). Plates were incubated overnight at an appropriate temperature (30° C.-37° C.) and optical densities (measure of cell growth) were measured using a commercial plate reader. The MIC value is defined as the lowest compound concentration inhibiting growth of the test organism.

[3] = test system: E. faecalis ATCC 33011; test: Whole cell antimicrobial screen, MIC; type: cell-based; settings: Enterococcus faecalis, ATCC33011
Method: as §1

[4] = test system: E. faecium ATCC 6569; test: Whole cell antimicrobial screen, MIC; type: cell-based; settings: Enterococcus faecium, ATCC6569
Method: as §1

[5] = test system: S. aureus ATCC 14154; test: Whole cell antimicrobial screen, MIC; type: cell-based; settings: Staphylococcus aureus, ATCC14154
Method: as §1

[6] = test system: S. aureus ATCC 6538P; test: Whole cell antimicrobial screen, MIC; type: cell-based; settings: Staphylococcus aureus, ATCC6538P
Method: as §1

[7] = test system: S. epidermidis ATCC 33501; test: Whole cell antimicrobial screen, MIC; type: cell-based; settings: Staphylococcus epidermidis, ATCC33501
Method: as §1

[8] = test system: S. pneumonia ATCC 49619; test: Whole cell antimicrobial screen, MIC; type: cell-based
Method: as §1

[9] = test system: S. pyogenes ATCC 8668; test: Whole cell antimicrobial screen, MIC; type: cell-based; settings: Streptococcus pyogenes, ATCC8668
Method: as §1

[10] = test system: S. saprophyticus ATCC 35552; test: Whole cell antimicrobial screen, MIC; type: cell-based; settings: Staphylococcus saprophyticus, ATCC35552
Method: as §1

[11] = test system: isoleucyl-tRNA synthetase; settings: Gram positive bacterial pathogens such as Staphylococcus aureus; cited from earlier work
[12] = test system: B. subtilis ATCC 6633; test: Whole cell antimicrobial screen, MIC; type: cell-based; settings: Bacillus subtilis, ATCC6633
Method: as §1

[13] = test system: K. pneumonia ATCC 4352; test: Whole cell antimicrobial screen, MIC; type: cell-based; settings: Klebsiella pneumoniae, ATCC4352
Method: as §1

[14] = test system: M. catarrhalis ATCC 25240; test: Whole cell antimicrobial screen, MIC; type: cell-based; settings: Moraxella catarrhalis, ATCC25240
Method: as §1

[15] = test system: H. influenza ATCC 49247; test: Whole cell antimicrobial screen, MIC; type: cell-based
Method: as §1

Structure (SMILES)	IC50 [1]	MIC [2]	MIC [3]	MIC [4]	MIC [5]	MIC [6]	MIC [7]	MIC [8]	MIC [9]	MIC [10]	inhibition of isoleucyl adenylate formation [11]	MIC [12]	MIC [13]	MIC [14]	MIC [15]
CC[C@H](C)[C@H](N)C(=O)NS(=O)(=O)OC[C@H]1O[C@@H](CCn2nnc(-c3ccc(C#Cc4ccc([N+](=O)[O-])o4)cc3)n2)[C@H](O)[C@@H]1O [II, [S-(R*,R*)]-3,6-anhydro-1,2-dideoxy-1-[5-[4-[(5-nitro-2-furyl)ethynyl]phenyl]-2H-tetrazol-2-yl]-D-allo-heptitol 7-(2-amino-3-methyl-1-oxopentyl)sulfamate]	1 nM	100 µg/mL (≈ 158 µM)	256 µg/mL (≈ 404 µM)	64 µg/mL (≈ 101 µM)	8 µg/mL (≈ 12.6 µM)	4 µg/mL (≈ 6.31 µM)	1 µg/mL (≈ 1.58 µM)	16 µg/mL (≈ 25.3 µM)	16 µg/mL (≈ 25.3 µM)	8 µg/mL (≈ 12.6 µM)	–	–	–	–	–
CC(=CC(=O)OCCCCCCCCC(=O)O)CC1OCC(CC2OC2C(C)C(C)O)C(O)C1O (stereo not drawn) [Pseudomonic acid A]	–	–	–	–	–	–	–	–	–	–	inhibits isoleucyl adenylate formation	–	–	–	–
CC[C@H](C)[C@H](N)C(=O)NS(=O)(=O)OC[C@H]1O[C@@H](CCn2nnc(-c3ccc(-c4ccccc4C)cc3)n2)[C@H](O)[C@@H]1O [XIX]	5.3 nM	500 µg/mL (≈ 849 µM)	300 µg/mL (≈ 510 µM)	200 µg/mL (≈ 340 µM)	50 µg/mL (≈ 84.9 µM)	50 µg/mL (≈ 84.9 µM)	5 µg/mL (≈ 8.49 µM)	–	–	25 µg/mL (≈ 42.5 µM)	–	50 µg/mL (≈ 84.9 µM)	100 µg/mL (≈ 170 µM)	50 µg/mL (≈ 84.9 µM)	–
CC[C@H](C)[C@H](N)C(=O)NS(=O)(=O)OC[C@H]1O[C@@H](CCn2nnc(-c3ccc(Oc4ccc(C(=O)OCc5ccccc5)cc4)cc3)n2)[C@H](O)[C@@H]1O [XI]	109 nM	> 500 µg/mL	> 500 µg/mL	25 µg/mL (≈ 34.5 µM)	25 µg/mL (≈ 34.5 µM)	10 µg/mL (≈ 13.8 µM)	5 µg/mL (≈ 6.9 µM)	50 µg/mL (≈ 69 µM)	5 µg/mL (≈ 6.9 µM)	10 µg/mL (≈ 13.8 µM)	–	–	–	–	25 µg/mL (≈ 34.5 µM)
CC[C@H](C)[C@H](N)C(=O)NS(=O)(=O)OC[C@H]1O[C@@H](CCn2nnc(-c3ccc(-c4ccccc4C)c(C)c3)n2)[C@H](O)[C@@H]1O [XXII]	11 nM	> 500 µg/mL	200 µg/mL (≈ 332 µM)	100 µg/mL (≈ 166 µM)	25 µg/mL (≈ 41.5 µM)	25 µg/mL (≈ 41.5 µM)	5 µg/mL (≈ 8.3 µM)	25 µg/mL (≈ 41.5 µM)	10 µg/mL (≈ 16.6 µM)	10 µg/mL (≈ 16.6 µM)	–	25 µg/mL (≈ 41.5 µM)	100 µg/mL (≈ 166 µM)	50 µg/mL (≈ 83 µM)	–
CC[C@H](C)[C@H](N)C(=O)NS(=O)(=O)OC[C@H]1O[C@@H](CCn2nnc(N3CCN(c4ccccc4)CC3)n2)[C@H](O)[C@@H]1O [XXIV]	1.3 nM	500 µg/mL (≈ 858 µM)	> 400 µg/mL	400 µg/mL (≈ 686 µM)	> 400 µg/mL	400 µg/mL (≈ 686 µM)	50 µg/mL (≈ 85.8 µM)	–	–	400 µg/mL (≈ 686 µM)	–	400 µg/mL (≈ 686 µM)	400 µg/mL (≈ 686 µM)	400 µg/mL (≈ 686 µM)	–
CC[C@H](C)[C@H](N)C(=O)NS(=O)(=O)OC[C@H]1O[C@@H](CCn2nnc(-c3ccc(-c4ccccc4)c(C)c3)n2)[C@H](O)[C@@H]1O [XX]	0.6 nM	> 500 µg/mL	500 µg/mL (≈ 849 µM)	100 µg/mL (≈ 170 µM)	50 µg/mL (≈ 84.9 µM)	50 µg/mL (≈ 84.9 µM)	25 µg/mL (≈ 42.5 µM)	–	–	25 µg/mL (≈ 42.5 µM)	–	50 µg/mL (≈ 84.9 µM)	50 µg/mL (≈ 84.9 µM)	25 µg/mL (≈ 42.5 µM)	> 500 µg/mL
